How the values were obtained:
[1] = Tissue distribution studies after IV administration; assay type: in vivo, rats; details: IV 0.5 mg/kg; for Tmax / AUC0-t / Cmax: C6, rats; for AUC0-t / Cmax: n = 3
Procedure: Wistar rats (180–200 g) were obtained from the Institute of Laboratory Animal Science, Chinese Academy of Medical Sciences, Beijing, China, and all animal experiments were performed in accordance with the regulations of the Animal Care and Use Committee of the Chinese Academy of Medical Sciences. […] A standard diet of food and water was supplied ad libitum during the experiments. […] The samples were stored at −20 °C until further analysis. The drug-targeting index (DTI) is considered an important parameter for tissue targeting efficiency, and was calculated using the following formula: DTI=AUCx/AUCp(NPs)/AUCx/AUCP(Free drug) Where “AUCx” is the AUC of tissue x, and “AUCp” is the AUC of the plasma.

[2] = Pharmacokinetic study, plasma C6 after IV administration; assay type: in vivo; details: rats, IV 0.5 mg/kg
Procedure: Wistar rats (180–200 g) were obtained from the Institute of Laboratory Animal Science, Chinese Academy of Medical Sciences, Beijing, China, and all animal experiments were performed in accordance with the regulations of the Animal Care and Use Committee of the Chinese Academy of Medical Sciences. […] A standard diet of food and water was supplied ad libitum during the experiments. A polyethylene catheter (Portex, Hythe, UK) was inserted through the right jugular veins of all rats one day prior to the pharmacokinetic experiment, and flushed with 100 U/mL heparin in 0.9% saline. […] Subsequently, 100 μL of plasma was obtained by centrifugation at 5000 rpm for 7 min at 0 °C, and the serum was collected. The measurement of C6 in the samples was analyzed by a fluorescence microplate reader as described earlier.

bEnd.3 cells = test: Uptake of C6 CLS-PEG NPs by bEnd.3 cells; assay type: cell-based, mouse; details: 20–100 μg/mL, 37 °C, 30 min to 4 h
Procedure: BEnd. 3 cells were seeded into a 6-well plate and cultured for 24 h. Then, the medium was replaced with different concentrations (20–100 μg/mL) of free C6 or CLS-PEG NPs encapsulated with C6, and incubated at 37 °C for 2 h. To study the effects of incubation time on CLS-PEG NPs uptake, the CLS-PEG NPs loaded C6 (50 μg/mL) and the free C6 solution were added into the wells, and the plate was incubated at 37 °C for 30 min, 1 h, 2 h, or 4 h. At the end of the experiment, the cells were washed with ice-cold PBS three times. Subsequently, the cells were lysed with cell lysate (Beijing Saichi Biotechnology Co., Ltd., China). The quantitative measurement of intracellular C6 in bEnd.3 cell lysates was analyzed by a fluorescence microplate reader as described earlier. Total cell protein concentrations of the bEnd.3 cells were determined using a BCA protein assay (Beijing Kangwei Century Biotechnology Co., Ltd., China). The uptake of CLS-PEG NPs by bEnd.3 cells was calculated and expressed as the amount of CLS-PEG NPs (μg) taken up per mg of cell protein.

[3] = Specificity to the brain, confocal laser scanning microscopy of brain sections; assay type: in vivo; details: rats, IV, 0.5 h after dosing
Procedure: Subsequently, the brain tissues were removed, washed with PBS, and fixed in 4% formaldehyde solution. After snap freezing in liquid nitrogen, the samples were embedded in […]. compound (Sakura Finetechnical, Tokyo, Japan) and cut into thin sections (10 μm). The slices were stained for cell nuclei with DAPI for 15 min in the dark and then washed three times with cold PBS. The sample was monitored by confocal laser scanning microscopy (Zeiss LSM710, Göttingen, Germany). ZEN Image Software 2012 was used to perform the image recording and image analysis. The image included 512 × 512 pixels measuring 2.77 × 2.77 μm^2.

CCN(CC)c1ccc2cc(-c3nc4ccccc4s3)c(=O)oc2c1 [Free drug, coumarin-6]
Tmax ([1]; Brain): 30 min | AUC0-t ([1]; Brain): 3.84 ± 0.21 µg·min/mL | Cmax ([1]; Brain): 45.64 ± 2.25 ng/g | Tmax ([1]; Heart): 15 min | AUC0-t ([1]; Heart): 8.45 ± 0.93 µg·min/mL | Cmax ([1]; Heart): 113.89 ± 16.48 ng/g | Tmax ([1]; Kidney): 30 min | AUC0-t ([1]; Kidney): 2.56 ± 0.44 µg·min/mL | Cmax ([1]; Kidney): 22.20 ± 1.91 ng/g | Tmax ([1]; Liver): 15 min | AUC0-t ([1]; Liver): 141.71 ± 13.25 µg·min/mL | Cmax ([1]; Liver): 2685.53 ± 356.67 ng/g | Tmax ([1]; Lung): 30 min | AUC0-t ([1]; Lung): 63.88 ± 5.62 µg·min/mL | Cmax ([1]; Lung): 900.02 ± 67.86 ng/g | Tmax ([1]; Spleen): 15 min | AUC0-t ([1]; Spleen): 271.02 ± 16.03 µg·min/mL | Cmax ([1]; Spleen): 3848.83 ± 339.27 ng/g | distribution of C6 in the brain ([1]; rats): very little distribution in the brain | AUC0-t ([2]; C6 in plasma, n = 6): 15.8 ± 2.4 µg·min/mL | AUC0-∞ ([2]; C6 in plasma, n = 6): 16.0 ± 2.3 µg·min/mL | C0 ([2]; C6 in plasma, n = 6): 828.4 ± 139.0 ng/mL | CL ([2]; C6 in plasma, n = 6): 6.4 ± 0.9 mL/min | Vd, λz ([2]; C6 in plasma, n = 6): 0.6 ± 0.3 L | t1/2, λz ([2]; C6 in plasma, n = 6): 60.1 ± 24.0 min | time after injection at which C6 was undetectable in plasma [2]: 4 h | cellular uptake by bEnd.3 cells (bEnd.3 cells): only minimally entered the cells | C6 fluorescent signal in the brain [3]: too weak to be distinguished

— publication PMC8241168, “Cholesterol–PEG comodified poly (N-butyl) cyanoacrylate nanoparticles for brain delivery: in vitro and in vivo evaluations” (Drug Delivery, 2017)
